From ChEMBL document CHEMBL5532664, “Discovery, Optimization, and Evaluation of Potent and Selective DNA-PK Inhibitors in Combination with Chemotherapy or Radiotherapy for the Treatment of Malignancies” (J Med Chem, 2024)
Active and inactive are the calls of the source. No cut-off for these calls is given here.

Assays:
HCT-116 [1] = assay: Inhibition of colony formation in human HCT-116 cells at […] preincubated with compound for 1 hr followed by exposure to 2 Gy gamma irradiation and measured after 7 days by crystal violet staining based chemiluminescence assay relative to control; format: functional; conditions: HCT-116, light or radiation study, dose 0.25 µM, time 169 hrs
in vitro = conditions: human, liver microsomes
[2] = molecular target: DNA-dependent protein kinase catalytic subunit (Homo sapiens, UniProt P78527)
Sequence of DNA-dependent protein kinase catalytic subunit (P78527 whole entry): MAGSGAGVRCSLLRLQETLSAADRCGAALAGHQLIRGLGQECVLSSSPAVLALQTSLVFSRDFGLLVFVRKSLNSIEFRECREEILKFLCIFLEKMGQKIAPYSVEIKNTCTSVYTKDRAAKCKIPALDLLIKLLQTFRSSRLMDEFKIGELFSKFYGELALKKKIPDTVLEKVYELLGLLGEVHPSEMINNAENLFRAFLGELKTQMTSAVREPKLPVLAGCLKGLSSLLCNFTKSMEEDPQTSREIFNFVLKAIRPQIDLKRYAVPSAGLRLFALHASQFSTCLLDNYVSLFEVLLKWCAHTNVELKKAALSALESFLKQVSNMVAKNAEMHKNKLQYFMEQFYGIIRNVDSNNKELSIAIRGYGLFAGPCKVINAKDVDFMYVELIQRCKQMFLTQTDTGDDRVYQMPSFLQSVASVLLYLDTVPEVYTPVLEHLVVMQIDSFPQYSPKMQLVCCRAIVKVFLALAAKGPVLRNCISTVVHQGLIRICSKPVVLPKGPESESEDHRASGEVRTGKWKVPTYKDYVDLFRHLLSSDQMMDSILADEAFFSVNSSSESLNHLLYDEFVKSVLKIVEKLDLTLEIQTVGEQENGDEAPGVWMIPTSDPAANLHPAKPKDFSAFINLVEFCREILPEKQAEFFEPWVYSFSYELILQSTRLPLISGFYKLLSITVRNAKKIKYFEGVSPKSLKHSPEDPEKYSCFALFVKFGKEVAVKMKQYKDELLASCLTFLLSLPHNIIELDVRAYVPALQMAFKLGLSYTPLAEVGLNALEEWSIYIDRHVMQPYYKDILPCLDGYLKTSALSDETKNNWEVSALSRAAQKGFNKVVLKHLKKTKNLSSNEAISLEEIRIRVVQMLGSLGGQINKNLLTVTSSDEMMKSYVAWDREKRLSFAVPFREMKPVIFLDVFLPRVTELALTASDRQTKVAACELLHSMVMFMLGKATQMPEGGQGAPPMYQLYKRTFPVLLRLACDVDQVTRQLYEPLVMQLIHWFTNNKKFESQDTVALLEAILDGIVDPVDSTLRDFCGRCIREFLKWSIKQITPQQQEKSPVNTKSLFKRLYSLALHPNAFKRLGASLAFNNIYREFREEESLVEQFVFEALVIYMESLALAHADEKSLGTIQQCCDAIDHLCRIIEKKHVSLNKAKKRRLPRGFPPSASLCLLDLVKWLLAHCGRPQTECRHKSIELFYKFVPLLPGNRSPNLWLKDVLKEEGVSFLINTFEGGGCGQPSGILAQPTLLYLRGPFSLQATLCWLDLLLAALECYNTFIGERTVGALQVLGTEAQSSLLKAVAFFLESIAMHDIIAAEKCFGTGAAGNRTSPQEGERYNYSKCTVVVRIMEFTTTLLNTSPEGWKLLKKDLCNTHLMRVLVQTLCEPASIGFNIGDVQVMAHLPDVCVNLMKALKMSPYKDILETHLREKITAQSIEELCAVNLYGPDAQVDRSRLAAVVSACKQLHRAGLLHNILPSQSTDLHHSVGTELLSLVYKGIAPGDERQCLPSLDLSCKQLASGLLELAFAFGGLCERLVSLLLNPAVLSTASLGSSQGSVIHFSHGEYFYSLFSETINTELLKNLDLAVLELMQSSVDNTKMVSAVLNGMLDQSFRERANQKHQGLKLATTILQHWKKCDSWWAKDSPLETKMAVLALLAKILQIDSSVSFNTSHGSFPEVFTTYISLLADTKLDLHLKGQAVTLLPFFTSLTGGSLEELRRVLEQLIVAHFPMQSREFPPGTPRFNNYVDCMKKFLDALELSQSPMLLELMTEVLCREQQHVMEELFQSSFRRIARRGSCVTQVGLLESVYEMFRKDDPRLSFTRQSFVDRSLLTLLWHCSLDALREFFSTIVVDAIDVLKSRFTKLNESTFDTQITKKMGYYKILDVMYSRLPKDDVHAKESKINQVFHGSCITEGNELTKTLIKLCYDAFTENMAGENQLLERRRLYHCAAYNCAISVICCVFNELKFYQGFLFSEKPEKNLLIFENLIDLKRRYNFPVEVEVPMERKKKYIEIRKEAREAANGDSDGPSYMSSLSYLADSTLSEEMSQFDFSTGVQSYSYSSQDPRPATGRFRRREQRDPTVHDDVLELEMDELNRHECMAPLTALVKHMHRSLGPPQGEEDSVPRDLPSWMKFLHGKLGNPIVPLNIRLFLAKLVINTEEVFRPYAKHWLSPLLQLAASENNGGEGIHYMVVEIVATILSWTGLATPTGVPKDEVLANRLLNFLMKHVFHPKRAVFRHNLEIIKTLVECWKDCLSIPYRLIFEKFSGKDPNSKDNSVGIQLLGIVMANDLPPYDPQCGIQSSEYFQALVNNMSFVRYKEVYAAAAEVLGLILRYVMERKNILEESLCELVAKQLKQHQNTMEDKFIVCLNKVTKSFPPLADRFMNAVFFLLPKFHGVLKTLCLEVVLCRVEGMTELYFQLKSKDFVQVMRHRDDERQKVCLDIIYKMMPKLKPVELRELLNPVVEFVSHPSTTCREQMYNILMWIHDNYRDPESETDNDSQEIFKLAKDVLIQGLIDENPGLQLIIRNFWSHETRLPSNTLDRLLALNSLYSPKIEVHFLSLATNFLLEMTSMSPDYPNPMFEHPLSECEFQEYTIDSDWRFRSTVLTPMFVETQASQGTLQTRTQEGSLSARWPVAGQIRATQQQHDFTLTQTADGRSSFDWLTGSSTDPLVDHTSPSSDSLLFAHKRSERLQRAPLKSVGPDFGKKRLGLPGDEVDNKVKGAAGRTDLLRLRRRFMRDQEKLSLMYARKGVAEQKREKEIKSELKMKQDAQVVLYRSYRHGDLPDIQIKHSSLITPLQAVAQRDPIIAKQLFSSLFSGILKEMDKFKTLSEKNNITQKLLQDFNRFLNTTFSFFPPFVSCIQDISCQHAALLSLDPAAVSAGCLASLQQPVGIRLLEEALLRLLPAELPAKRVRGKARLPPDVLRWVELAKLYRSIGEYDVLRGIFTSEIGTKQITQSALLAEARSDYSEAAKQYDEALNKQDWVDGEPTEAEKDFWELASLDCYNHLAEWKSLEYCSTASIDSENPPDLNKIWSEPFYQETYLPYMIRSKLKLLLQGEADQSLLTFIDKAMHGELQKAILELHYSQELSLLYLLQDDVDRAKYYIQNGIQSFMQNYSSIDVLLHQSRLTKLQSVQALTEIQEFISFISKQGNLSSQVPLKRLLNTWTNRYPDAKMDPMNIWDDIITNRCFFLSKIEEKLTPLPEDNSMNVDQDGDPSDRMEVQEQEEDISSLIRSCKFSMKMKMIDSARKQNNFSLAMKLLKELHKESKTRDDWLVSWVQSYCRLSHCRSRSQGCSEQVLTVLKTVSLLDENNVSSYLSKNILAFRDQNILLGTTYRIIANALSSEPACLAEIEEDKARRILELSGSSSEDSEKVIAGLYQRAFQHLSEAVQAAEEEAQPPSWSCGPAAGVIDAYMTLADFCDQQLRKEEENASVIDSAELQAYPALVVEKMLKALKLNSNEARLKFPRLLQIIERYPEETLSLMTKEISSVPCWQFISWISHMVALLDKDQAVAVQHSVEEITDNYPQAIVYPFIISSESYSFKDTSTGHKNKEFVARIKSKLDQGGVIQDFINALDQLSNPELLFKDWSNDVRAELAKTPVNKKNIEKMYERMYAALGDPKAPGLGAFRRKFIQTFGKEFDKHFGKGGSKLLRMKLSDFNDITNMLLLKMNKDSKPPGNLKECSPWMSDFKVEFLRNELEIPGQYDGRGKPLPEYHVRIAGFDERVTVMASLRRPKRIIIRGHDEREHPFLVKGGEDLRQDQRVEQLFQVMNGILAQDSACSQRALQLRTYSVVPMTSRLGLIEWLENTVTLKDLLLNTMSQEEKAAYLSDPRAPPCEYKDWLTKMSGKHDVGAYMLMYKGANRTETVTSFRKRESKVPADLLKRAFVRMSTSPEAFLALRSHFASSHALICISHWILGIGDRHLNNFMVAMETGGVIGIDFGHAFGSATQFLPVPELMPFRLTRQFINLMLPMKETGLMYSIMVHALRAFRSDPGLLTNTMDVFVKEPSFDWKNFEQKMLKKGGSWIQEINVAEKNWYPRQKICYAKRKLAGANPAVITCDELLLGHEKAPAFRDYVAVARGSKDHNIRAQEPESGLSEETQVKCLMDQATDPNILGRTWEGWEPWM
Description: Inhibition of human DNA-PK incubated for 30 mins in presence of Mg/ATP by HTRF method

NCI-H460 = assay: Antitumor activity against human NCI-H460 cells xenografted in BALB/ c nude mouse assessed as inhibition of tumor growth at 100 mg/kg, po administered once daily with 2 Gy irradiation and measured upto 7 days by vernier caliper analysis; format: functional, organism-based; conditions: time <= 7.0 day
HCT-116 [3] = assay: Inhibition of colony formation in human HCT-116 cells preincubated with compound for 1 hr followed by exposure to 2 Gy gamma irradiation and measured after 7 days by crystal violet staining based chemiluminescence assay; format: functional, cell-based; conditions: HCT-116, light or radiation study

SMILES | IC50 [2] [nM] | inhibition at […] (HCT-116 [1]) [%] | further results
COc1ncc(-c2cc(C)c(Nc3ncc4c(n3)n(C3CCOCC3)c(=O)n4C)cn2)cn1 |  | 34 | 
Cc1cc(-c2ccoc2)ncc1Nc1ncc2c(n1)n(C1CCOCC1)c(=O)n2C |  | 99.8 | half-life at 5 min, 1 µM (in vitro): 0.213 h
Cc1cc(-c2cnn(C)c2)ncc1Nc1ncc2c(n1)n(C1CCN(C(=O)[C@@H]3C[C@H]3F)CC1)c(=O)n2C |  | 28.3 | 
Cc1cc(-c2c(C)noc2C)ncc1Nc1ncc2c(n1)n(C1CCOCC1)c(=O)n2C |  | 25 | 
Cc1nc(-c2cnn(C)c2)ccc1Nc1ncc2c(n1)n(C1CCOCC1)c(=O)n2C |  | 23.3 | 
Cc1cc(-c2cn[nH]c2)ncc1Nc1ncc2c(n1)n(C1CCOCC1)c(=O)n2C | 0.4 | 86.7 | half-life at 5 min, 1 µM (in vitro): 0.963 h
Cc1nc(-c2cnn(C)c2)ncc1Nc1ncc2c(n1)n(C1CCOCC1)c(=O)n2C |  | 63.2 | 
Cc1cc(-c2cnoc2)ncc1Nc1ncc2c(n1)n(C1CCOCC1)c(=O)n2C |  | 32.8 | 
COc1cc(-c2cc(C)c(Nc3ncc4c(n3)n(C3CCOCC3)c(=O)n4C)cn2)cc(OC)c1OC |  | -11.4 | 
Cc1cc(-c2coc(C=O)c2)ncc1Nc1ncc2c(n1)n(C1CCOCC1)c(=O)n2C |  | 96.9 | half-life at 5 min, 1 µM (in vitro): 0.235 h
Cc1cc(-c2cccc(S(C)(=O)=O)c2)ncc1Nc1ncc2c(n1)n(C1CCOCC1)c(=O)n2C |  | 19.3 | 
Cc1nc(-c2cn[nH]c2)ccc1Nc1ncc2c(n1)n(C1CCOCC1)c(=O)n2C | 25 | 27.7 | half-life at 5 min, 1 µM (in vitro): 1.2 h
Cc1cc(-c2cnn(C)c2)ncc1Nc1ncc2c(n1)n(CC1CCOCC1)c(=O)n2C |  | 42.8 | 
Cc1cc(-c2cnn(C)c2)cnc1Nc1ncc2c(n1)n(C1CCOCC1)c(=O)n2C |  | -0.2 | 
CC(=O)N1CCC(n2c(=O)n(C)c3cnc(Nc4cnc(-c5cnn(C)c5)cc4C)nc32)CC1 | 1 | 14.7 | 
Cc1cc(-c2cnn(C3CC3)c2)ncc1Nc1ncc2c(n1)n(C1CCOCC1)c(=O)n2C |  | 63.3 | 
COc1ccc(-c2ccc(Nc3ncc4c(n3)n(C3CCOCC3)c(=O)n4C)c(C)n2)cc1OC |  | 28.3 | 
Cc1cc(-c2cnn(C)c2C)ncc1Nc1ncc2c(n1)n(C1CCOCC1)c(=O)n2C |  | 28 | 
Cn1c(=O)n(C2CCOCC2)c2nc(N3CCc4cc(S(C)(=O)=O)ccc43)ncc21 |  | 5.8 | 
Cc1cc(-c2cnn(C)c2)ncc1Nc1ncc2c(n1)n(C1CCCCC1C)c(=O)n2C (stereo unspecified) | 9 | 86.7 | 
Cc1cc(-c2cnn(C)c2)ncc1Nc1ncc2c(n1)n([C@@]13C[C@@H]4C[C@@](C)(C[C@@](C)(C4)C1)C3)c(=O)n2C |  | 83.9 | half-life at 5 min, 1 µM (in vitro): 0.0373 h

SMILES | IC50 [2] [nM] | inhibition at […] (HCT-116 [1]) [%] | further results
Cc1cc(-c2ccc3c(c2)OCCO3)ncc1Nc1ncc2c(n1)n(C1CCOCC1)c(=O)n2C |  | 60 | 
COc1cc2c(cc1OC)N(c1ncc3c(n1)n(C1CCOCC1)c(=O)n3C)CC2 |  | 89.8 | 
Cn1c(=O)n(C2CCOCC2)c2nc(Nc3ccc(-c4ccc5c(c4)OCO5)nc3)ncc21 |  | 85.8 | 
Cc1cc(-c2cnn(C)c2)ccc1Nc1ncc2c(n1)n(C1CCOCC1)c(=O)n2C |  | 58.5 | 
Cn1c(=O)n(C2CCOCC2)c2nc(N3CCc4cc(F)c(F)cc43)ncc21 |  | 8.2 | 
Cn1c(=O)n(C2CCOCC2)c2nc(N3CCc4ccccc43)ncc21 |  | -11.6 | half-life at 5 min, 1 µM (in vitro): 1.2 h
Cc1cc(-c2cncnc2)ncc1Nc1ncc2c(n1)n(C1CCOCC1)c(=O)n2C |  | 22.9 | 
Cc1cc(-c2cnn(C(C)C)c2)ncc1Nc1ncc2c(n1)n(C1CCOCC1)c(=O)n2C |  | 12.6 | 
Cc1cc(-c2cccnc2)ncc1Nc1ncc2c(n1)n(C1CCOCC1)c(=O)n2C |  | 97.4 | 
Cc1cc(-c2ccnn2C)ncc1Nc1ncc2c(n1)n(C1CCOCC1)c(=O)n2C | 8 | 95 | half-life at 5 min, 1 µM (in vitro): 14.4 h
Cc1ccc(-c2cnn(C)c2)cc1Nc1ncc2c(n1)n(C1CCOCC1)c(=O)n2C | 2 | 98 | half-life at 5 min, 1 µM (in vitro): 3.04 h
Cn1c(=O)n(C2CCOCC2)c2nc(N3CCc4ccc([N+](=O)[O-])cc43)ncc21 |  | 12.5 | 
Cc1ccc(-c2cc(C)c(Nc3ncc4c(n3)n(C3CCOCC3)c(=O)n4C)cn2)o1 |  | 76.7 | half-life at 5 min, 1 µM (in vitro): 0.642 h
Cn1c(=O)n(C2CCOCC2)c2nc(N3CCc4cc(C(F)(F)F)ccc43)ncc21 |  | 41 | 
Cn1c(=O)n(C2CCOCC2)c2nc(N3CCc4cc(C#N)ccc43)ncc21 | 13 | 84.7 | half-life at 5 min, 1 µM (in vitro): 0.352 h
Cc1cc(-c2ccsc2)ncc1Nc1ncc2c(n1)n(C1CCOCC1)c(=O)n2C | 0.8 | 99.8 | half-life at 5 min, 1 µM (in vitro): 2.51 h; Activity (NCI-H460): Active; IC50 (HCT-116 [3]): 3.76 nM
Cc1cc(-c2cnn(C)c2)ncc1Nc1ncc2c(n1)n(C1CCN(C(=O)C3CC3)CC1)c(=O)n2C | 3 | 66.9 | 
Cc1cc(-c2c(C)nn(C)c2C)ncc1Nc1ncc2c(n1)n(C1CCOCC1)c(=O)n2C |  | 22.9 | 
Cc1cc(-c2ccco2)ncc1Nc1ncc2c(n1)n(C1CCOCC1)c(=O)n2C |  | 99.7 | 
Cc1cc(-c2cnn(C)c2)ncc1Nc1ncc2c(n1)n(C1CC1)c(=O)n2C |  | 53.1 | 
Cc1cc(-c2ncn(C)n2)ccc1Nc1ncc2c(n1)n(C1CCOCC1)c(=O)n2C | 13 | 56.1 | 

Further lines, with some results ahead:

IC50 [2] [nM] | SMILES | inhibition at […] (HCT-116 [1]) [%] | further results
1 | Cc1cc(-c2cnn(C)c2)ncc1Nc1ncc2c(n1)n(C1CCN(S(C)(=O)=O)CC1)c(=O)n2C | 30.4 | 
8 | Cn1cc(-c2ccc3c(c2)CCN3c2ncc3c(n2)n(C2CCOCC2)c(=O)n3C)cn1 | 97.6 | half-life at 5 min, 1 µM (in vitro): 2.51 h
161 | COc1ccc(-c2ccc(Nc3ncc4c(n3)n(C3CCOCC3)c(=O)n4C)c(C)n2)cn1 | 29.9 | 
4 | Cc1cc(-c2cn(C)nc2C(F)(F)F)ncc1Nc1ncc2c(n1)n(C1CCOCC1)c(=O)n2C | 63.9 | half-life at 5 min, 1 µM (in vitro): 1.99 h
10 | Cc1ncc(-c2cnn(C)c2)cc1Nc1ncc2c(n1)n(C1CCOCC1)c(=O)n2C | 74.3 | 
12 | Cc1cc(-c2cnn(C)c2)ncc1Nc1ncc2c(n1)n(C1CCN(C(=O)C3CC3(F)F)CC1)c(=O)n2C (stereo unspecified) | 47.3 | 
0.9 | Cc1cc(-c2cnn(C)c2)ncc1Nc1ncc2c(n1)n(C1CCNCC1)c(=O)n2C | 46.8 | 
2 | Cc1cc(-c2cnn(C)c2)ncc1Nc1ncc2c(n1)n(C1CCN(S(=O)(=O)C3CC3)CC1)c(=O)n2C | 84.9 | half-life at 5 min, 1 µM (in vitro): 3.04 h
6 | Cc1cc(-c2cn(C)nc2C)ncc1Nc1ncc2c(n1)n(C1CCOCC1)c(=O)n2C | 77.4 | half-life at 5 min, 1 µM (in vitro): 128 h
1 | CC(=O)c1ccc2c(c1)CCN2c1ncc2c(n1)n(C1CCOCC1)c(=O)n2C | 32.6 | 
6 | COc1ccc2c(c1)CCN2c1ncc2c(n1)n(C1CCOCC1)c(=O)n2C | 86.1 | half-life at 5 min, 1 µM (in vitro): 0.138 h
5.3 | COc1cncc(-c2ccc(Nc3ncc4c(n3)n(C3CCOCC3)c(=O)n4C)c(C)n2)c1 |  | 
5 | COC(=O)c1ccc2c(c1)CCN2c1ncc2c(n1)n(C1CCOCC1)c(=O)n2C | 48.1 | 
9.6 | Cc1nc(-c2ccnn2C)ccc1Nc1ncc2c(n1)n(C1CCOCC1)c(=O)n2C |  | 
5 | Cc1cc(-c2cnn(C)c2)ncc1Nc1ncc2c(n1)n(C1CCN(S(=O)(=O)C(F)(F)F)CC1)c(=O)n2C | 86.7 | 
6 | Cc1cc(-c2cnn(C)c2)ncc1Nc1ncc2c(n1)n([C@H]1CCOC1)c(=O)n2C | 90.7 | half-life at 5 min, 1 µM (in vitro): 28.9 h
